Columns and labels:
TLR7 [1] = target: T1, TLR7 (Mus musculus, UniProt P58681); test: Loxoribine-induced IFN-α/IL-6 production in murine Flt3L-derived dendritic cells; type: cell-based; parameters: Femurs and tibiae of female Balb/C mice were isolated; endogenous in cells; host or cells: Flt3L-derived dendritic cells cultured from bone marrow of female Balb/C mice; conditions: murine Flt3L DC; 30 μM Lox; 0.2 μM RNA; 24 h
T1 sequence (P58681 27-1050): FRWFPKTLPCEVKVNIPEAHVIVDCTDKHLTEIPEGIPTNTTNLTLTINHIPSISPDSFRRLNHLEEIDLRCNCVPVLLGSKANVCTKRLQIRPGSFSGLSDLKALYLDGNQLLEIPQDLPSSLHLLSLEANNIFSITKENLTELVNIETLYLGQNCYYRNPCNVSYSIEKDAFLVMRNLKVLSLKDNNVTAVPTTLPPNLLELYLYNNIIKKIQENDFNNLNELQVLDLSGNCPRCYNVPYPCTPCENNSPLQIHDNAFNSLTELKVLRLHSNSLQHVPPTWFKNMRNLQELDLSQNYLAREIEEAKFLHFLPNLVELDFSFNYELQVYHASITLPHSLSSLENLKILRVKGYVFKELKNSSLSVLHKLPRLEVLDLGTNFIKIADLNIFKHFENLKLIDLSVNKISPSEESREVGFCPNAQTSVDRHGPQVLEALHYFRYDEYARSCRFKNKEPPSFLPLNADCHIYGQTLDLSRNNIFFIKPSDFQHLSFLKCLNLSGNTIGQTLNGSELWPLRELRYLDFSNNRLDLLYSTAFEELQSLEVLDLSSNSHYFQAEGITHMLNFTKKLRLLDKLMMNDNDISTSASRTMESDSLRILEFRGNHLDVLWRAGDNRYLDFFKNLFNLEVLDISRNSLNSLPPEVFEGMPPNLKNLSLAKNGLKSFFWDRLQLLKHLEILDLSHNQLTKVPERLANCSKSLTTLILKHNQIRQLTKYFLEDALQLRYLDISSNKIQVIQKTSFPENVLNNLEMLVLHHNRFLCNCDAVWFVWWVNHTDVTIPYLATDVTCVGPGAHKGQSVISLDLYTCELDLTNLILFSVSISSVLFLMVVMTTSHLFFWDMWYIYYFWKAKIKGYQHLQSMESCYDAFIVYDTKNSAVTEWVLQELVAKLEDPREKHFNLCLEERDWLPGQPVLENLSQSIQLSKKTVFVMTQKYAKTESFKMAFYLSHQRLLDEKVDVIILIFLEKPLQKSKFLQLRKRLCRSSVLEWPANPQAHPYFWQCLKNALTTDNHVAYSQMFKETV
Method: Lipid Encapsulation of RNA and ODN. RNA or ODN were encapsulated in liposomes by a process of spontaneous vesicle formation as described in Judge et al., supra, and Jeffs et al., Pharm. Res., 22:362-372 (2005).
Flt3L-derived dendritic cells (DC) were generated as described in Gilliet et al., J. Exp. Med., 195:953-958 (2002), using 100 ng/ml murine Flt3-ligand (Peprotech) supplemented media. Femurs and tibiae of female Balb/C mice were isolated and rinsed in sterile PBS. The ends of bones were cut and marrow harvested in complete media (RPMI 1640, 10% heat inactivated FBS, 1% penicillin/streptomycin, 2 mM L-glutamine, 1 mM sodium pyruvate, 25 mM HEPES, 50 μM 2-mercaptoethanol). Bone marrow cells were passed through a 70 μm strainer and centrifuged at 1000 rpm for 7 min. and resuspended in complete media supplemented with 100 ng/ml murine Flt3L to 2×10^6 cells/ml. 2 ml of cells were seeded in 6-well plates and 1 ml fresh media was added every two to three days. On day 9 of culture, non-adherent cells were washed in complete media and plated into 96-well plates at concentrations ranging from 0.5 to 2.5×10^5 cells/well. […]
Cytokine ELISA. All cytokines were quantified using sandwich ELISA kits according to the manufacturer's instructions. […]

TLR7 [2] = target: T1, TLR7; test: In vivo cytokine induction by formulated ssRNA in mice; parameters: from tissue; host or cells: whole animal: female Balb/C mice, plasma cytokines; species or system Balb/C mice; conditions: IV
Method: Cytokine ELISA. All cytokines were quantified using sandwich ELISA kits according to the manufacturer's instructions. These were mouse and human IFN-α (PBL Biomedical; Piscataway, N.J.) and IL-6 (eBioscience; San Diego, Calif.).
In Vivo Cytokine Induction. Animal studies were performed at Protiva Biotherapeutics in accordance with Canadian Council on Animal Care guidelines and following protocol approval by the local Animal Care and Use Committee. Female Balb/C mice were subjected to a two-week quarantine and acclimation period prior to use at six to eight-weeks of age. RNA formulations were administered by standard injection in the lateral tail vein in 0.2 ml PBS. Six hours after injection, blood was collected by cardiac puncture and processed as plasma for cytokine analysis. In experiments studying inhibition of cytokine induction by loxoribine, formulated RNA (100 μg) was administered IV 2 h prior to IV administration of 1 mg loxoribine in PBS. Blood was collected by cardiac puncture 2 h after administration of loxoribine and processed as plasma for cytokine analysis.

[3] = 1:1 molar ratio in lipid particles, 40 μg βgal AS RNA, plasma 6 h
[4] = plasma 6 h after administration

With “polyUmod21: 2′OMe-uridine homopolymer of 21 nucleotides in length (UUUUUUUUUUUUUUUUUUUUU; all 2'-O-methyl, backbone not given here)” the “inhibition of Lox-mediated IFN-α induction” value (TLR7 [1]) was 87+/−11%, the “inhibition of Lox-mediated IL-6 induction” value (TLR7 [1]) was 69+/−1% and the “IFN-α induction by ssRNA agonist when co-formulated” value (TLR7 [2]; [3]) was “eliminated measurable”. The “IL-6 induction by ssRNA agonist when co-formulated” value (TLR7 [2]; [3]) was “eliminated measurable”, the “plasma IFN-α after administration of the formulated RNA alone” value (TLR7 [2]; [4]) was “no measurable cytokine response” and the “plasma IL-6 after administration of the formulated RNA alone” value (TLR7 [2]; [4]) was “no measurable cytokine response”.

Source: US20080171716A1, “NUCLEIC ACID MODULATION OF TOLL-LIKE RECEPTOR-MEDIATED IMMUNE STIMULATION” (Protiva Biotherapeutics, Inc., priority 2006, published 2008)
